Structures can show the parent of a compound that is named as a salt. Where two headings read alike, the source gives them in different places.
How the values were obtained:
[1] = system: influenza A virus (A/PR/8/34); assay: microbe, parasite or virus in culture; format: cell-based
[2] = system: A/PR/8/34 influenza virus; assay: microbe, parasite or virus in culture; format: cell-based
[3] = Influenza A virus, PR/8, MDCK, mean all, A/PR/8/34 infected MDCK cells, CPE assay, read-out: IC50
[4] = Influenza A virus, PR/8, MDCK, mean all, A/PR/8/34 influenza virus in MDCK cells, bDNA assay, read-out: EC50
[5] = mean all, MDCK cells infected with A/PR/8/34, cell protection (CPE), read-out: IC50
[6] = mean all, bDNA viral RNA in MDCK cells infected with A/PR/8/34, read-out: EC50
[7] = Influenza A virus, PR/8, MDCK, MDCK cells infected with A/PR/8/34, survival of infected cells, class symbols, read-out: IC50 (mean all)
[8] = Influenza A virus, PR/8, MDCK, MDCK cells infected with A/PR/8/34, replication of influenza virus (viral RNA, bDNA), class symbols, read-out: EC50 (mean all)
[9] = CPE assay, A/PR/8/34 infected MDCK cells, class symbols, read-out: IC50 (mean all)
[10] = bDNA assay, A/PR/8/34 influenza virus replication in MDCK cells, class symbols, read-out: EC50 (mean all)
[11] = Influenza A virus, PR/8, MDCK, CPE assay, A/PR/8/34 infected MDCK cells, class symbols, read-out: IC50 (mean all)
[12] = Influenza A virus, PR/8, MDCK, bDNA assay, A/PR/8/34 influenza virus replication in MDCK cells, class symbols, read-out: EC50 (mean all)
[13] = Influenza A virus, PR/8, MDCK, MDCK cells infected with A/PR/8/34, cell protection (CPE), read-out: IC50 (mean all)
[14] = Influenza A virus, PR/8, MDCK, MDCK cells infected with A/PR/8/34, bDNA viral RNA, read-out: EC50 (mean all)
[15] = mean all, A/PR/8/34 influenza virus in MDCK cells, bDNA assay, read-out: EC50

In the case of `CCNC(=O)N1CCCC[C@@H]1CNc1nc(-c2c[nH]c3ncccc23)ncc1F` [Compound 373, (R)—N-ethyl-2-((5-fluoro-2-(1H-pyrrolo[2,3-b]pyridin-3-yl)pyrimidin-4-ylamino)-methyl)piperidine-1-carboxamide], the IC50 [1, 3] is reported as 5 to 20 µM and the EC50 [2, 4] is reported as greater than 10 µM.
Work on “(1S,3R)—N1-(5-fluoro-2-(5-fluoro-1H-pyrrolo[2,3-b]pyridin-3-yl)pyrimidin-4-yl)-N3-(pyrazin-2-yl)cyclohexane-1,3-diamine [Compound 985]” yielded an IC50 ([1]; MDCK cells, A/PR/8/34, ATP readout, mean all, read-out: Cell Flu, MDCK protection, ATP (All: IC50: uM)(Mean (All))) of less than 5 µM and an EC50 ([2]; HA(−) 30 hr, A/PR/8, bDNA, mean all, read-out: Cell Influenza HA(−) 30 hr A/PR/8 bDNA:bDNA EC50 uM(Mean (All))) of less than 5 µM.
In the case of `O=C(O)C1CCCC(Nc2nc(-c3c[nH]c4ncc(Cl)cc34)ncc2F)C1` (stereo not drawn) [Compound 696], the IC50 [1, 5] is reported as less than 5 µM and the EC50 [2, 6] is reported as less than 5 µM.
Molecule `O=C(O)[C@H]1CCCC[C@@H]1Nc1nc(-c2c[nH]c3ncc(Cl)cc23)ncc1F` (racemic) [Compound 541, Trans-2-(2-(5-chloro-1H-pyrrolo[2,3-b]pyridin-3-yl)-5-fluoropyrimidin-4-ylamino)cyclohexanecarboxylic acid] has an IC50 [1, 7] of less than 5 µM and an EC50 [2, 8] of less than 5 µM.
In the case of `C=CCOC(=O)N1CCOCC1CNc1nc(-c2c[nH]c3ncc(Cl)cc23)ncc1F` (stereo not drawn) [Compound 528, Allyl 3-((2-(5-chloro-1H-pyrrolo[2,3-b]pyridin-3-yl)-5-fluoropyrimidin-4-ylamino)methyl)morpholine-4-carboxylate], the IC50 [1, 7] is reported as 5 to 20 µM and the EC50 [2, 8] is reported as greater than 10 µM.
`CCC(=O)NC1CCCC(Nc2nc(-c3c[nH]c4ncc(Cl)cc34)ncc2F)C1` (stereo not drawn) [Compound 683] gave an IC50 [1, 5] of less than 5 µM and an EC50 [2, 6] of less than 5 µM.
Work on `N#Cc1cnc2[nH]cc(-c3ncc(F)c(NC4CCCN(CC(N)=O)C4)n3)c2c1` (stereo not drawn) [Compound 661] yielded an IC50 [1, 9] of less than 5 µM and an EC50 [2, 10] of less than 5 µM.
`N#Cc1cnc(-c2c[nH]c3ncc(Cl)cc23)nc1N[C@H]1CCCN(CC(N)=O)C1` [Compound 654] gave an IC50 [1, 11] of 5 to 20 µM and an EC50 [2, 12] of 5 to 10 µM.
For `CC(C)(C)C(=O)NC1CCCC(Nc2nc(-c3c[nH]c4ncc(Cl)cc34)ncc2F)C1` (stereo not drawn) [Compound 723], the IC50 [1, 5] was less than 5 µM and the EC50 [2, 6] was less than 5 µM.
`COC(=O)N[C@H]1CCCC[C@@H]1Nc1nc(-c2c[nH]c3ncc(Cl)cc23)ncc1F` [Compound 425, Methyl N-[(1S,2S)-2-[[2-(5-chloro-1H-pyrrolo[2,3-b]pyridin-3-yl)-5-fluoro-pyrimidin-4-yl]amino]cyclohexyl]carbamate] showed an IC50 [1, 3] of less than 5 µM and an EC50 [2, 4] of less than 5 µM.
`O=C(CC1CCCC1)N1CCC[C@H](CNc2nc(-c3c[nH]c4ncc(Cl)cc34)ncc2F)C1` [Compound 100, (R)-1-(3-((2-(5-chloro-1H-pyrrolo[2,3-b]pyridin-3-yl)-5-fluoropyrimidin-4-ylamino)methyl)piperidin-1-yl)-2-cyclopentylethanone] gave an IC50 [1, 13] of less than 5 µM and an EC50 [2, 14] of less than 5 µM.
`Fc1cnc(-c2c[nH]c3ncc(Cl)cc23)nc1N[C@H]1CCC[C@@H](c2nnn[nH]2)C1` [Compound 855, N-((1S,3R)-3-(1H-tetrazol-5-yl)cyclohexyl)-2-(5-chloro-1H-pyrrolo[2,3-b]pyridin-3-yl)-5-fluoropyrimidin-4-amine] gave an IC50 ([1]; Influenza A virus, PR/8, MDCK, mean all, A/PR/8/34 infected MDCK cells, cell protection (CPE), read-out: IC50) of less than 5 µM and an EC50 ([2]; Influenza A virus, PR/8, mean all, A/PR/8/34 influenza virus replication, bDNA, read-out: EC50) of less than 5 µM.
Molecule `O=C(OCCF)N1CCC[C@H](CNc2nc(-c3c[nH]c4ncc(Cl)cc34)ncc2F)C1` [Compound 126, (R)-2-fluoroethyl 3-((2-(5-chloro-1H-pyrrolo[2,3-b]pyridin-3-yl)-5-fluoropyrimidin-4-ylamino)methyl)piperidine-1-carboxylate] has an IC50 [1, 13] of less than 5 µM and an EC50 [2, 14] of less than 5 µM.
Molecule `O[C@@H]1[C@H](O)CCC[C@@H]1Nc1nc(-c2c[nH]c3ncc(Cl)cc23)ncc1F` [Compound 632] has an IC50 [1, 11] of less than 5 µM and an EC50 [2, 12] of less than 5 µM.
With `O=C(COc1ccccc1)N1CCC[C@H](CNc2nc(-c3c[nH]c4ncc(Cl)cc34)ncc2F)C1` [Compound 94, (R)-1-(3-((2-(5-chloro-1H-pyrrolo[2,3-b]pyridin-3-yl)-5-fluoropyrimidin-4-ylamino)methyl)piperidin-1-yl)-2-phenoxyethanone] the IC50 [1, 13] was less than 5 µM and the EC50 [2, 14] was less than 5 µM.
With “N-[cis-2-[[5-fluoro-2-(1H-pyrrolo[2,3-b]pyridin-3-yl)pyrimidin-4-yl]amino]cyclohexyl]methanesulfonamide [Compound 337]” the IC50 ([1]; read-out: IC50) was 5 to 20 µM and the EC50 [2, 15] was less than 5 µM.
`COC(=O)N1CCOCC1CNc1nc(-c2c[nH]c3ncc(Cl)cc23)ncc1F` (stereo not drawn) [Compound 526, Methyl 3-((2-(5-chloro-1H-pyrrolo[2,3-b]pyridin-3-yl)-5-fluoropyrimidin-4-ylamino)methyl)morpholine-4-carboxylate] gave an IC50 [1, 7] of 5 to 20 µM and an EC50 [2, 8] of less than 5 µM.
`O=C(OC1CCOC1)N1CCC[C@H](Nc2nc(-c3c[nH]c4ncc(Cl)cc34)ncc2F)C1` (stereo partly drawn) [Compound 443] showed an IC50 [1, 3] of less than 5 µM and an EC50 [2, 4] of less than 5 µM.
Work on “(R)-methyl 2-(3-((2-(5-chloro-1H-pyrrolo[2,3-b]pyridin-3-yl)-5-fluoropyrimidin-4-ylamino)methyl)piperidine-1-carboxamido)ethanoate [Compound 125]” yielded an IC50 ([1]; read-out: IC50 (mean all)) of less than 5 µM and an EC50 ([2]; read-out: EC50 (mean all)) of less than 5 µM.
Molecule `Fc1cnc(-c2c[nH]c3ncc(Cl)cc23)nc1NC[C@H]1CCCN(c2ncccn2)C1` [Compound 124, (R)-2-(5-chloro-1H-pyrrolo[2,3-b]pyridin-3-yl)-5-fluoro-N-((1-(pyrimidin-2-yl)piperidin-3-yl)methyl)pyrimidin-4-amine] has an IC50 [1, 13] of less than 5 µM and an EC50 [2, 14] of less than 5 µM.
In the case of `CN(C)C(=O)N[C@@H]1CCCC[C@H]1CNc1nc(-c2c[nH]c3ncc(Cl)cc23)ncc1F` (relative stereo) [Compound 564, 3-(trans-2-((2-(5-chloro-1H-pyrrolo[2,3-b]pyridin-3-yl)-5-fluoropyrimidin-4-ylamino)methyl)cyclohexyl)-1,1-dimethylurea], the IC50 [1, 7] is reported as greater than 10 µM and the EC50 [2, 8] is reported as less than 5 µM.
With `N[C@@H]1CCCC[C@H]1Nc1nc(-c2c[nH]c3ncc(Cl)cc23)ncc1C(F)(F)F` [Compound 31, (1R,2R)—N1-(2-(5-chloro-1H-pyrrolo[2,3-b]pyridin-3-yl)-5-(trifluoromethyl)pyrimidin-4-yl)cyclohexane-1,2-diamine] the IC50 [1, 13] was less than 5 µM and the EC50 [2, 14] was less than 5 µM.
`CCCC(=O)N1CCCC[C@@H]1CNc1nc(-c2c[nH]c3ncc(Cl)cc23)ncc1F` [Compound 295, (R)-1-(2-((2-(5-chloro-1H-pyrrolo[2,3-b]pyridin-3-yl)-5-fluoropyrimidin-4-ylamino)methyl)piperidin-1-yl)butan-1-one] gave an IC50 [1, 13] of less than 5 µM and an EC50 [2, 14] of less than 5 µM.
Molecule `O=C(O)[C@H]1CC[C@@H](C(=O)N2CCC[C@H](CNc3nc(-c4c[nH]c5ncc(Cl)cc45)ncc3F)C2)C1` [Compound 55, (1S,3R)-3-((R)-3-((2-(5-chloro-1H-pyrrolo[2,3-b]pyridin-3-yl)-5-fluoropyrimidin-4-ylamino)methyl)piperidine-1-carbonyl)cyclopentanecarboxylic acid] has an IC50 [1, 13] of less than 5 µM and an EC50 [2, 14] of less than 5 µM.
`C=CCOC(=O)N1CCC[C@@H](CNc2nc(-c3c[nH]c4ncc(Cl)cc34)ncc2F)C1` [Compound 17, (S)-allyl 3-((2-(5-chloro-1H-pyrrolo[2,3-b]pyridin-3-yl)-5-fluoropyrimidin-4-ylamino)methyl)piperidine-1-carboxylate] was tested, and the IC50 [1, 13] was 5 to 20 µM and the EC50 [2, 14] was less than 5 µM.
Molecule `C=CCCC(=O)N1CCCC[C@@H]1CNc1nc(-c2c[nH]c3ncc(Cl)cc23)ncc1F` [Compound 279, (R)-1-(2-((2-(5-chloro-1H-pyrrolo[2,3-b]pyridin-3-yl)-5-fluoropyrimidin-4-ylamino)methyl)piperidin-1-yl)pent-4-en-1-one] has an IC50 [1, 13] of less than 5 µM and an EC50 [2, 14] of less than 5 µM.
In the case of `OC(CN1CCCC(Nc2nc(-c3c[nH]c4ncc(Cl)cc34)ncc2F)C1)C(F)(F)F` (stereo not drawn) [Compound 614], the IC50 [1, 9] is reported as less than 5 µM and the EC50 [2, 10] is reported as less than 5 µM.
Work on `CC[C@@]1(C(=O)O)CCCC[C@H]1Nc1nc(-c2c[nH]c3ncc(Cl)cc23)ncc1F` (relative stereo) [Compound 586, trans-2-(2-(5-chloro-1H-pyrrolo[2,3-b]pyridin-3-yl)-5-fluoropyrimidin-4-ylamino)-1-ethylcyclohexanecarboxylic acid] yielded an IC50 ([1]; read-out: IC50 (mean all)) of less than 5 µM and an EC50 ([2]; […], replication of influenza virus (viral RNA, bDNA), class symbols, read-out: EC50 (mean all)) of less than 5 µM.
`O=C(N[C@@H]1CCC[C@H](Nc2nc(-c3c[nH]c4ncc(Cl)cc34)ncc2F)C1)C1CCCCO1` (stereo partly drawn) [Compound 651, N-[(1R,3S)-3-[[2-(5-chloro-1H-pyrrolo[2,3-b]pyridin-3-yl)-5-fluoro-pyrimidin-4-yl]amino]cyclohexyl]tetrahydropyran-2-carboxamide hydrochloride] gave an IC50 [1, 11] of less than 5 µM and an EC50 [2, 12] of less than 5 µM.
“1-[(1S,2S)-2-[[2-(5-chloro-1H-pyrrolo[2,3-b]pyridin-3-yl)-5-fluoro-pyrimidin-4-yl]amino]cyclohexyl]-3-methyl-urea [Compound 426]” showed an IC50 ([1]; read-out: IC50) of less than 5 µM and an EC50 [2, 15] of less than 5 µM.
